Test results published in US20100119997A1, “METHOD FOR PRODUCTION OF MESENCHYMAL CELL, METHOD FOR PRODUCTION OF TOOTH, AND MESENCHYMAL CELL FOR FORMATION OF TOOTH” (ORGAN TECHNOLOGIES INC., priority 2007, published 2010).

Legend:
AT805 cells (EC cells) [1] = experiment: Differentiation induction of EC cells by retinoic acid, CD44/CD29 double staining and cell sorter; format: cell-based, mouse; details: 72 h treatment, 7 culture days
Procedure: AT805 cells collected by a trypsin treatment in the same manner as in Example 1 were plated at a concentration of 1.0×10^6 cells per 100 mm dish, and, on the next day, the medium was replaced with DMEM supplemented with 10% by volume FCS, which was also added with retinoic acid (manufactured by SIGMA) at a final concentration of 0 to 10.0 μM, to stimulate the cells. After 72 hours of culture, the cells were washed twice with HCMF buffer, and the whole medium was replaced with DMEM supplemented with 10% by volume FCS only.
Culturing was continued for 7 days with replacement of a half amount of the medium every 3 days with DMEM supplemented with 10% by volume FCS, and observation was carried out as appropriate. A cell population grown after the RA treatment, which contains undifferentiated cells, was washed once with HCMF, and 3 mM EDTA-0.5% BSA-PBS(−) was added thereto, followed by incubation thereof at 37° C. After collecting cells, the cells were subjected to double staining with CD44 FITC (BD Pharmingen) and CD29 (BD Pharmingen) PE to separate and obtain CD44-positive and CD29-positive cells using Epics ALTRA (Beckman Coulter), and thus a cell population after exclusion of undifferentiated cells, which cell population is composed of only differentiated cells, was obtained. These cells were designated RA-EC cells.

AT805 cells (EC cells) [2] = experiment: Differentiation induction of EC cells by DMSO, CD44/CD29 double staining and cell sorter; format: cell-based, mouse; details: for CD44-positive and CD29-positive cells / Cell number: 14 h treatment
Procedure: As the EC cells, AT805 cells (a clone derived from OTT6050, EC cells of the strain129; obtained from the Cell Bank, RIKEN Bioresource Center) were used. Culturing of AT805 cells was performed using Dulbecco's modified Eagle's medium (DMEM; manufactured by SIGMA or Kohjin Bio Co. Ltd.) supplemented with 10% by volume fetal calf serum (FCS: manufactured by JRH, JBS or Hyclone) and 55 μM 2-mercaptoethanol (manufactured by GIBCO). EC cells were usually plated at a concentration of 5 to 8×10^5 cells per 100 mm dish, and complete replacement of the medium and passage culture were repeated every other day. In passage culture, the cells were washed once with HCMF buffer (pH7.4; 10 mM Hepes, 136.9 mM NaCl, 0.34 mM […], 13.9 mM glucose, 5.37 mM KCl), and 5 ml of an enzyme solution wherein trypsin-EDTA.2Na (manufactured by GIBCO) was dissolved at the final concentration of 0.025% was then added thereto, followed by an enzyme treatment at 37° C. for 1 minute. Subsequently, an equal amount of DMEM supplemented with 10% FCS was added to disperse the cells, and the cells were then precipitated and collected by centrifugation. The collected cells were resuspended and plated on a new culture dish to carry out passage culture.
EC cells collected by trypsin treatment were suspended in DMEM supplemented with 10% by volume FCS and dimethylsulfoxide (DMSO: manufactured by SIGMA) at the final concentration of 0.5 to 5% by volume, and plated at the concentration of 1.0×10^6 cells per 100 mm dish. Culture was carried out under 5% CO2 at 37° C., and after 14 hours, the cells were washed once with HCMF buffer, followed by replacement of the medium with DMEM supplemented with 10% by volume FCS.
EC cells treated with DMSO was continuously cultured for 6 days (19 days only in the case of 5% by volume DMSO) with replacement of a half amount of the medium every 3 days with DMEM supplemented with 10% by volume FCS, and observation was carried out as appropriate. When a cell population containing undifferentiated cells was grown, it washed once with HCMF buffer and then suspended by addition of Ca^2+/Mg^2+-free PBS(−)(EDTA/BSA-PBS) supplemented with 3 mM EDTA and 0.5% BSA, followed by centrifugation to collect cells as precipitates. The cells were resuspended in EDTA/BSA-PBS and then subjected to double staining with an FITC-labeled anti-CD44 antibody (CD44-FITC: manufactured by BD Pharmingen) and a PE-labeled anti-CD29 antibody (CD29-PE: manufactured by BD Pharmingen). A CD44-positive and CD29-positive cell fraction was isolated using a cell sorter, Epics ALTRA (manufactured by Beckman Coulter), to obtain an EC cell fraction wherein differentiation was induced by a DMSO treatment and undifferentiated EC cell were excluded (see FIG. 2). These cells were designated DMSO-EC cells.

[3] = DMSO 5.0 v/v %, 19 culture days

Structure (SMILES)	CD44-positive and CD29-positive cells (AT805 cells (EC cells) [1]; RA 0.5 μM) [%]	Cell number (AT805 cells (EC cells) [1]; RA 0.5 μM)	CD44-positive and CD29-positive cells (AT805 cells (EC cells) [1]; RA 1.0 μM) [%]	Cell number (AT805 cells (EC cells) [1]; RA 1.0 μM)	CD44-positive and CD29-positive cells (AT805 cells (EC cells) [1]; RA 2.0 μM) [%]	Cell number (AT805 cells (EC cells) [1]; RA 2.0 μM)	CD44-positive and CD29-positive cells (AT805 cells (EC cells) [1]; RA 5.0 μM) [%]	Cell number (AT805 cells (EC cells) [1]; RA 5.0 μM)	CD44-positive and CD29-positive cells (AT805 cells (EC cells) [1]; RA 10.0 μM) [%]	Cell number (AT805 cells (EC cells) [1]; RA 10.0 μM)	Survival of EC cells immediately after treatment (AT805 cells (EC cells) [2]; 5% by volume DMSO)	CD44-positive and CD29-positive cells (AT805 cells (EC cells) [2]; DMSO 0.5 v/v %, 6 culture days) [%]	Cell number (AT805 cells (EC cells) [2]; DMSO 0.5 v/v %, 6 culture days)	CD44-positive and CD29-positive cells (AT805 cells (EC cells) [2]; DMSO 1.0 v/v %, 6 culture days) [%]	Cell number (AT805 cells (EC cells) [2]; DMSO 1.0 v/v %, 6 culture days)	CD44-positive and CD29-positive cells (AT805 cells (EC cells) [2]; DMSO 2.5 v/v %, 6 culture days) [%]	Cell number (AT805 cells (EC cells) [2]; DMSO 2.5 v/v %, 6 culture days)	CD44-positive and CD29-positive cells (AT805 cells (EC cells) [2]; [3]) [%]	Cell number (AT805 cells (EC cells) [2]; [3])
CC1=C(/C=C/C(C)=C/C=C/C(C)=C/C(=O)O)C(C)(C)CCC1 [RA, retinoic acid]	10.8	1.5 ×10^6 cells	10.0	1.1 ×10^6 cells	11.3	1.3 ×10^6 cells	11.5	0.5 ×10^6 cells	10.4	0.7 ×10^6 cells	–	–	–	–	–	–	–	–	–
C[S+](C)[O-] [DMSO, dimethyl sulfoxide]	–	–	–	–	–	–	–	–	–	–	most cells died immediately after the treatment	0.3	1.15 ×10^7 cells	0.5	1.19 ×10^7 cells	13.7	1.64 ×10^7 cells	93.0	2.83 ×10^7 cells
